For 2 molecules, IC50 results are on record in paper PMC9501377, “New Diarylamine KV10.1 Inhibitors and Their Anticancer Potential” (Pharmaceutics, 2022).

In the test the test system is MCF-7 breast cancer cell line. Description: MTS antiproliferative assay. The settings on record: Homo sapiens, MCF7, 72 h. The class given is cell-based. The procedure:
The antiproliferative activities of the compounds were evaluated on the breast cancer cell line MCF-7 (ATCC HTB-22, adherent cells isolated from a person), using an MTS (Promega, Madison, WI, USA) assay according to the manufacturer’s instructions. The MCF-7 cell line was obtained from the American Type Culture Collection (ATCC, Manassas, VA, USA). Cells were cultured in low-glucose Dulbecco’s Modified Eagle’s Medium (DMEM) (Sigma-Aldrich, St. Louis, MO, USA), supplemented with 10% fetal bovine serum (Gibco, Thermo Fisher Scientific, Waltham, MA, USA), 100 U/mL penicillin (Sigma-Aldrich, St. Louis, MO, USA), 100 µg/mL streptomycin (Sigma-Aldrich, St. Louis, MO, USA), and 2 mM L-glutamine (Sigma-Aldrich, St. Louis, MO, USA). The cell line was incubated in a 5% CO2 atmosphere at 37 °C. Cells were plated out in 96-well plates at a density of 2000 cells per well and incubated overnight. The next day, cells were treated with the indicated compounds, positive control (17-DMAG), or vehicle control (0.5% DMSO) and incubated for 72 h. […] Absorbance was measured at 492 nm using a microplate reader (Synergy 4 Hybrid; BioTek, Winooski, VT, USA). […] Statistical significance (p < 0.05) was calculated using a two-tailed Welch’s t-test between treated groups and DMSO. IC50 values are given as averages of the independent measurements and were calculated using GraphPad Prism 8.0 software (San Diego, CA, USA). […]
(Tetrazolium assays rely on reduction of a dye to a coloured formazan, in cell work by metabolically active cells.)

Molecules are shown by their SMILES.

Consider `CCN(CC)CCOc1ccc(Nc2ccc(C(F)(F)F)cc2[N+](=O)[O-])cc1` [Compound 17a, N-(4-(2-(Diethylamino)ethoxy)phenyl)-2-nitro-4-(trifluoromethyl)aniline], for which the IC50 (commonly the concentration at which inhibition is half-maximal) came out at 18.5 ± 1.5 µM.

Regarding `CN(C)CCOc1c(Br)cc(Nc2ccc(C(F)(F)F)cc2[N+](=O)[O-])cc1Br` [Compound 18b, 3,5-Dibromo-4-(2-(dimethylamino)ethoxy)-N-(2-nitro-4-(trifluoromethyl)phenyl)aniline], the IC50 was 11.9 ± 1 µM.
